Seven molecules from ChEMBL document CHEMBL5625265, “Exploring 2-methyl-substituted vitamin K3 derivatives with potent inhibitory activity against the 3CL protease of SARS-CoV-2” (Bioorg Med Chem Lett, 2024) can be followed below.

The structures appear in SMILES notation. Calls of active or inactive are those of the source. The calls are words filed in the database; no cut-off is given here.

The target in experiment [1] is Replicase polyprotein 1ab (Severe acute respiratory syndrome coronavirus 2) (UniProt P0DTD1). The experiment in a line: Inhibition of SARS-CoV-2 3CL protease at 10 uM using Dabcyl-KTSAVLQSGFRKME-Edans as a substrate preincubated for 30 mins followed by substrate addition and measured after for 4 hrs by FRET assay relative to control. The following applies: time 4.5 hrs.

Experiment [2] deals with Replicase polyprotein 1ab (Severe acute respiratory syndrome coronavirus 2, UniProt P0DTD1). The experiment in a line: Inhibition of SARS-CoV-2 3CL protease using Dabcyl-KTSAVLQSGFRKME-Edans as a substrate preincubated for 30 mins followed by substrate addition and measured after for 4 hrs by FRET assay.

For the molecule `CCSC1=CC(=O)c2ccccc2C1=O`, the inhibition (commonly the drop in the measured response relative to a control, in per cent) in experiment [1] was “Active”. Moreover, in experiment [2], 5.35 µM corresponded to half-maximal inhibition (IC50).

As to `CC(=O)CCC1=CC(=O)c2ccccc2C1=O`, in experiment [1], the inhibition result was “Active”.

Take `O=C1C=C(C2CCC2)C(=O)c2ccccc21`: the inhibition result in experiment [1] was “Active”.

Take `O=C1C=C(C2CC2)C(=O)c2ccccc21`: the inhibition result in experiment [1] was “Active”.

In turn, `CC1=CC(=O)c2ccccc2C1=O` returned an inhibition in experiment [1] of 40%.

As for `O=C1C=C(Sc2ccccc2)C(=O)c2ccccc21`, in experiment [1], the inhibition result was “Active”. For the same molecule, half-maximal inhibition in experiment [2] (IC50) required 0.964 µM.

`O=C1C=C(Oc2ccccc2)C(=O)c2ccccc21`: the inhibition entry in experiment [1] is “Active”.
